{"source": "patent US11324832B2", "about": "“Tripartite modulators of endosomal G protein-coupled receptors” (Endosome Therapeutics, Inc., priority 2015, dated 2022)", "key": {"[1]": {"system": "formalin-evoked nocifensive behavior in mice", "test": "Formalin-evoked nocifensive behavior in mice", "assay_type": "in vivo, mouse", "conditions": "for effect on formalin-evoked nocifensive behavior: i.t. 30 min before intraplantar formalin", "description": "(§1) Investigators were unaware of test agents."}, "NK1R [2]": {"target": "NK1R (Rattus norvegicus, UniProt P14600)", "sequence (P14600 whole entry, the tested form may be a part)": "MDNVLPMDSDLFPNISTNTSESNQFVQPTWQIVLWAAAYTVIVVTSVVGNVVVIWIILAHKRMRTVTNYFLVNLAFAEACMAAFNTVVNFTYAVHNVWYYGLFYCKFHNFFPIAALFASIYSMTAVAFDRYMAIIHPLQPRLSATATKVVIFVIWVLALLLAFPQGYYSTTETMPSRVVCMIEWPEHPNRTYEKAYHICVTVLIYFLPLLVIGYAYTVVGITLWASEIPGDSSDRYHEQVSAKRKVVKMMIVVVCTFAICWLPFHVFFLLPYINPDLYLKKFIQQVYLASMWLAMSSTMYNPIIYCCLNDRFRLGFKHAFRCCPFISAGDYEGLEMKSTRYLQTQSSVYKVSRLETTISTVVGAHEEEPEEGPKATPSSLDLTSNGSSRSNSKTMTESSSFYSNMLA", "test": "FRET biosensors of compartmentalized signaling (ERK, PKC, cAMP) in NK1R-expressing HEK293 cells", "assay_type": "cell-based", "set-up": "Full length and truncated 6312 rat HA-NK1R have been described; expressed in transfected cells; host or cells: HEK293 (transient)", "conditions": "for effect on SP activation of cytosolic ERK / effect on SP-induced plasma membrane cAMP / effect on plasma membrane PKC activity: endocytic inhibitor plus SP 1 nM; for effect on SP stimulation of cytosolic PKC / effect on SP stimulation of cytosolic cAMP / effect on SP stimulation of nuclear ERK: endocytic or signaling inhibitor plus SP 1 nM", "protocol": "To study the link between NK1R trafficking and signaling, the NK1R and Förster Resonance Energy Transfer (FRET) biosensors targeted to detect activated ERK in the cytosol (CytoEKAR) or nucleus (NucEKAR, FIG. 2A), activated PKC at the plasma membrane (pmCKAR) or in the cytosol (CytoCKAR, FIG. 2C), and cAMP at the plasma membrane (pmEpac2) or in the cytosol (CytoEpac2, FIG. 2E) were expressed in HEK293 cells.\nHEK293 cells were transfected with 55 ng/well rat NK1R with N-terminal HA. 11 epitope tag (HA-NK1R) or CLR plus RAMP1 and 40 ng/well FRET biosensors. FRET was assessed 48 h after transfection, following serum restriction (0.5% FBS overnight). For experiments using clathrin or dynamin siRNA, cells were transfected with 55 ng/well rat HA-NK1R, 40 ng/well FRET biosensor and 25 nM/well scrambled, clathrin or dynamin ON-TARGETplus SMARTpool siRNA (GE Dharmacon). FRET was assessed 72 h after transfection, following serum restriction (0.5% FBS overnight). Cells were equilibrated in HBSS at 37° C. and FRET was analyzed using a GE Healthcare INCell 2000 Analyzer. For GFP/RFP emission ratio analysis, cells were sequentially excited using a FITC filter (490/20) with emission measured using dsRed (605/52) and FITC (525/36) filters, and a polychroic optimized for the FITC/dsRed filter pair (Quad4). For CFP/YFP emission ratio analysis, cells were sequentially excited using a CFP filter (430/24) with emission measured using YFP (535/30) and CFP (470/24) filters, and a polychroic optimized for the CFP/YFP filter pair (Quad3). Cells were imaged every 1 min, allowing image capture of 14 wells per minute. Baseline emission ratio images were captured for 4 min. […] Cells were then stimulated with the positive control (200 nM phorbol 12,13-dibutyrate for ERK; 200 nM phorbol 12,13-dibutyrate with phosphatase inhibitor cocktail for PKC; 10 μM forskolin, 100 μM 3-isobutyl-1-methylxanthine, 100 nM PGE1 for cAMP) for 10 min to generate a maximal increase, and positive emission ratio images were captured for 4 min. Data were analyzed as described and expressed as emission ratios relative to baseline for each cell (F/F0). Cells with >10% change in F/F0 after stimulation with positive controls were selected for analysis."}, "[3]": {"system": "capsaicin-evoked mechanical hyperalgesia in mice", "test": "Capsaicin-evoked mechanical hyperalgesia and edema in mice"}, "[4]": {"system": "CFA-induced mechanical hyperalgesia in mice", "test": "CFA-induced mechanical hyperalgesia in mice", "assay_type": "in vivo, mouse", "conditions": "for effect on CFA-induced sustained mechanical hyperalgesia: endocytic inhibitor i.t. 36 h after CFA", "description": "as §1"}, "ERK": {"system": "ERK", "test": "ERK phosphorylation in rat lamina I dorsal horn neurons in vivo", "conditions": "i.t. 30 min before intraplantar capsaicin", "protocol": "Painful peripheral stimuli activate ERK in NKiR-expressing spinal neurons, which coincides with receptor endocytosis and contributes to hyperalgesia. Intraplantar capsaicin stimulated ERK phosphorylation in lamina I dorsal horn neurons (FIG. 5B). […] Thus, capsaicin stimulates clathrin- and dynamin-dependent NK1R endocytosis and ERK activation in spinal neurons in vivo.\nAfter 10 min, rats were transcardially perfused with PBS and then 4% PFA. The spinal cord was removed, immersion fixed in PFA (2 h, 4° C.), and cryoprotected (30% sucrose, PBS, 24 h, 4° C.). The spinal cord (T12 to L4) was embedded in OCT and […] serial coronal sections were cut into 48-well plates containing PBS. Free-floating sections were blocked in PBS containing 10% normal horse serum (1 h, RT). […]\nTissues and cells were observed using a Leica SP8 confocal microscope using HCX PL APO 40× (NA 1.30) and HCX PL APO 63× (NA 1.40) oil objectives. […] NK1R endocytosis and pERK expression were quantified using ImageJ. To quantify NK1R internalization in lamina I neurons, the border of the cytoplasm of the neuronal soma was defined by NeuN fluorescence, and NK1R fluorescence within 5 pixels (0.5 μm) of the border was defined as plasma membrane-associated receptor. The ratio of plasma membrane to cytosolic NK1R-IR fluorescence was determined in >6 lamina I neurons per condition. […]"}, "NK1R [5]": {"system": "NK1R", "test": "NK1R endocytosis in rat spinal neurons in vivo", "conditions": "lamina I neurons; i.t. 50 μM 30 min before intraplantar capsaicin; 10 min after capsaicin", "protocol": "The spinal cord was collected 10 min later for localization of the NK1R. In controls (intrathecal, intraplantar vehicle), NK1R-IR was mostly at the plasma membrane of the soma and neurites of lamina I neurons (80.7±1.6% of total NK1R-IR within […] of the soma plasma membrane).\nAfter 10 min, rats were transcardially perfused with PBS and then 4% PFA. The spinal cord was removed, immersion fixed in PFA (2 h, 4° C.), and cryoprotected (30% sucrose, PBS, 24 h, 4° C.). The spinal cord (T12 to L4) was embedded in OCT and […] serial coronal sections were cut into 48-well plates containing PBS. Free-floating sections were blocked in PBS containing 10% normal horse serum (1 h, RT). Sections were incubated with mouse anti-NeuN (1:20,000; AbCam) and either rabbit anti-NK1R (1:5,000, #94168) or rabbit anti-pERK (1:200; Cell Signaling Technology) in PBS containing 3% normal horse serum (48 h, 4° C.). Sections were washed (4×20 min in PBS) and incubated with donkey anti-rabbit Alexa488 (1:8,000) and donkey anti-mouse Alexa568 (1:2,000 (Life Technologies) (1 h, RT). Sections were washed, incubated with DAPI (10 μg/ml, 5 min), and mounted in Vectashield (Vector Laboratories).\nTissues and cells were observed using a Leica SP8 confocal microscope using HCX PL APO 40× (NA 1.30) and HCX PL APO 63× (NA 1.40) oil objectives. Z stacks were collected of NKiR-positive neurons in lamina I of the dorsal horn. Video projections of Z stacks were made using Imaris Software (Bitplane). NK1R endocytosis and pERK expression were quantified using ImageJ. To quantify NK1R internalization in lamina I neurons, the border of the cytoplasm of the neuronal soma was defined by NeuN fluorescence, and NK1R fluorescence within 5 pixels (0.5 μm) of the border was defined as plasma membrane-associated receptor. The ratio of plasma membrane to cytosolic NK1R-IR fluorescence was determined in >6 lamina I neurons per condition. To quantify ERK activation, the ratio of the number of pERK-IR neurons to total Neu-N-positive neurons in lamina I was determined in >6 fields (×40 objective) per condition."}, "[6]": {"conditions": "preincubated 30 min, then immediately challenged with SP"}, "[7]": {"conditions": "i.t. 3 h before intraplantar capsaicin"}, "[8]": {"conditions": "i.t. 36 h after intraplantar CFA"}, "[9]": {"conditions": "i.t. 30 min before intraplantar capsaicin"}}, "note": "Where a SMILES comes first, the peptide text is derived from it. [ ]: non-standard residue; d: D form. The star is where a group is joined. X1 = CC(C)CCC[C@@H](C)[C@H]1CC[C@H]2[C@@H]3CC[C@H]4C[C@@H](O*)CC[C@]4(C)[C@H]3CC[C@]12C; PEG4 = NCCOCCOCCOCCOCCC(=O)O; PEG3 = NCCOCCOCCOCCC(=O)O", "data": [{"smiles": "CC(=O)N[C@@H](CC(=O)O[C@H]1CC[C@@]2(C)[C@@H](CC[C@@H]3[C@@H]2CC[C@]2(C)[C@@H]([C@H](C)CCCC(C)C)CC[C@@H]32)C1)C(=O)NCCOCCOCCOCCOCCC(=O)NCCOCCOCCOCCC(=O)NCCOCCOCCOCCOCCC(=O)N[C@H](CCCNC(=N)N)C(=O)N1CCC[C@H]1C(=O)N[C@@H](CCCCN)C(=O)N1CCC[C@H]1C(=O)N[C@@H](CCC(N)=O)C(=O)N[C@@H](CCC(N)=O)C(=O)N[C@H](Cc1c[nH]c2ccccc12)C(=O)N[C@@H](Cc1ccccc1)C(=O)N[C@H](Cc1c[nH]c2ccccc12)C(=O)N[C@@H](CC(C)C)C(=O)N[C@@H](CC(C)C)C(N)=O", "note": "[Compound 1] (Ac-D(X1)[PEG4][PEG3][PEG4][dR]PKPQQ[dW]F[dW]LL-NH2)", "values": [{"measurement": "effect on formalin-evoked nocifensive behavior (both phases)", "setting": "[1]; i.t. 3 h before intraplantar formalin", "value": "markedly inhibited both phases of nocifensive behavior"}, {"measurement": "antagonism of SP activation of cytosolic ERK, pre-incubation", "setting": "NK1R [2]; [6]", "value": "blocked activation of nuclear and cytosolic ERK"}, {"measurement": "antagonism of SP activation of nuclear ERK, pre-incubation", "setting": "NK1R [2]; [6]", "value": "blocked activation of nuclear and cytosolic ERK"}, {"measurement": "antagonism of SP activation of nuclear ERK, pulse incubation", "setting": "NK1R [2]; pulse incubated 30 min, washed, SP 4 h later", "value": "alone inhibited nuclear ERK"}, {"measurement": "delay of analgesia", "setting": "[3]; i.t. 30 min after capsaicin", "value": 3, "unit": "h"}, {"measurement": "duration of analgesia", "setting": "[3]; i.t. 30 min after capsaicin", "value": "> 6", "unit": "h"}, {"measurement": "duration of inhibition of capsaicin-evoked hyperalgesia", "setting": "[3]; [7]", "value": "> 120", "unit": "min"}, {"measurement": "effect on capsaicin-evoked mechanical hyperalgesia (von Frey, left paw)", "setting": "[3]; [7]", "value": "markedly inhibited capsaicin-evoked hyperalgesia"}, {"measurement": "duration of analgesia", "setting": "[4]; [8]", "value": "> 6", "unit": "h"}, {"measurement": "time after which analgesic", "setting": "[4]; [8]", "value": 4, "unit": "h"}]}, {"smiles": "O=C(N/N=C/c1cc(O)c(O)cc1O)c1cc2ccccc2cc1O", "note": "[Dy4]", "values": [{"measurement": "effect on formalin-evoked nocifensive behavior", "setting": "[1]", "value": "inhibited both phases of nocifensive behavior"}, {"measurement": "effect on capsaicin-evoked activation of spinal ERK", "setting": "ERK", "value": "prevented capsaicin-evoked activation of spinal ERK"}, {"measurement": "effect on SP activation of cytosolic ERK", "setting": "NK1R [2]", "value": "did not suppress SP activation of cytosolic ERK or plasma membrane cAMP, but caused both responses to become sustained"}, {"measurement": "effect on SP-induced plasma membrane cAMP", "setting": "NK1R [2]", "value": "did not suppress SP activation of cytosolic ERK or plasma membrane cAMP, but caused both responses to become sustained"}, {"measurement": "effect on plasma membrane PKC activity", "setting": "NK1R [2]", "value": "amplified plasma membrane PKC activity"}, {"measurement": "effect on SP stimulation of cytosolic PKC", "setting": "NK1R [2]", "value": "abolished"}, {"measurement": "effect on SP stimulation of cytosolic cAMP", "setting": "NK1R [2]", "value": "abolished"}, {"measurement": "effect on SP stimulation of nuclear ERK", "setting": "NK1R [2]", "value": "abolished"}, {"measurement": "effect on capsaicin-evoked edema (left paw thickness)", "setting": "[3]; [9]", "value": "unaffected"}, {"measurement": "effect on capsaicin-evoked mechanical hyperalgesia (von Frey, left paw)", "setting": "[3]; [9]", "value": "inhibited hyperalgesia"}, {"measurement": "NK1R-IR at plasma membrane (% membrane)", "setting": "NK1R [5]", "value": "59.6±0.2", "unit": "%"}, {"measurement": "effect on CFA-induced sustained mechanical hyperalgesia", "setting": "[4]", "value": "partially reversed"}]}, {"smiles": "O=C1NC(=NS(=O)(=O)c2cccc3ccccc23)S/C1=C\\c1ccc(Br)cc1", "note": "[PS2]", "values": [{"measurement": "effect on formalin-evoked nocifensive behavior", "setting": "[1]", "value": "inhibited both phases of nocifensive behavior"}, {"measurement": "effect on capsaicin-evoked activation of spinal ERK", "setting": "ERK", "value": "prevented capsaicin-evoked activation of spinal ERK"}, {"measurement": "effect on SP activation of cytosolic ERK", "setting": "NK1R [2]", "value": "did not suppress SP activation of cytosolic ERK or plasma membrane cAMP, but caused both responses to become sustained"}, {"measurement": "effect on SP-induced plasma membrane cAMP", "setting": "NK1R [2]", "value": "did not suppress SP activation of cytosolic ERK or plasma membrane cAMP, but caused both responses to become sustained"}, {"measurement": "effect on plasma membrane PKC activity", "setting": "NK1R [2]", "value": "amplified plasma membrane PKC activity"}, {"measurement": "effect on SP stimulation of cytosolic PKC", "setting": "NK1R [2]", "value": "abolished"}, {"measurement": "effect on SP stimulation of cytosolic cAMP", "setting": "NK1R [2]", "value": "abolished"}, {"measurement": "effect on SP stimulation of nuclear ERK", "setting": "NK1R [2]", "value": "abolished"}, {"measurement": "effect on capsaicin-evoked edema (left paw thickness)", "setting": "[3]; [9]", "value": "unaffected"}, {"measurement": "effect on capsaicin-evoked mechanical hyperalgesia (von Frey, left paw)", "setting": "[3]; [9]", "value": "inhibited hyperalgesia"}, {"measurement": "effect on paw withdrawal responses of the uninjected right hind paw", "setting": "[3]; intrathecal treatment", "value": "did not affect"}, {"measurement": "NK1R-IR at plasma membrane (% membrane)", "setting": "NK1R [5]", "value": "69.0±1.1", "unit": "%"}, {"measurement": "effect on CFA-induced sustained mechanical hyperalgesia", "setting": "[4]", "value": "partially reversed"}]}]}
